Literature values as cited in patent US20090142391A1, “Conjugated RNAi Therapeutics” (priority 2007, published 2009).

Conditions: in the blood

## C=CC[C@@H]1/C=C(\C)C[C@H](C)C[C@H](OC)[C@H]2O[C@@](O)(C(=O)C(=O)N3CCCC[C@H]3C(=O)O[C@H](/C(C)=C/[C@@H]3CC[C@@H](O)[C@H](OC)C3)[C@H](C)[C@@H](O)CC1=O)[C@H](C)C[C@@H]2OC [FK506]
  distribution into protected cellular compartments: 72-98%
